Test results: patent US20180305332A1, “Bispiperidinyl Derivatives as Liver X Receptor Beta Agonists, Compositions, and Their Use” (Merck Sharp & Dohme Corp., priority 2015, published 2018)
pEC50: −log10 of the molar value.

Tests used:
[1] = target: T1, GST tagged LXRbeta LBD (ligand binding domain) (Homo sapiens, UniProt P55055); assay: LanthaScreen TR-FRET Liver X Receptor Coactivator Assay, LXR beta-LBD; type: biochemical; settings: relative to reference T0901317; for pEC50: Inflection Point (potency), co-activator recruitment, read-out: LXR beta IP; for Emax: activity at max dose (efficacy), read-out: LXR beta act @ max dose (%)
T1 construct: purchased Invitrogen pv4658.pps
T1 sequence (P55055 222-460 limits assumed): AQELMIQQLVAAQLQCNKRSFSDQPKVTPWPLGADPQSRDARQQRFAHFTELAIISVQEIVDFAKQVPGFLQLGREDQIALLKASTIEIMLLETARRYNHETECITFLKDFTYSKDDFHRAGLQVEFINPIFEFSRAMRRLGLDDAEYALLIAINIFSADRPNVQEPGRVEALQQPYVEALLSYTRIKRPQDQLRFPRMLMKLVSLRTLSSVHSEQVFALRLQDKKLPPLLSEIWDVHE
How it was run: (§1)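 GST-tagged human LXRα or LXRβ LBD was mixed with test compound, then fluorescein-labelled coactivator peptide and terbium anti-GST antibody added. After room-temperature incubation, TR-FRET was read. Inflection point and Emax expressed relative to reference dual agonist T0901317.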

[2] = target: T2, GST tagged LXRalpha LBD (ligand binding domain) (Homo sapiens, UniProt Q13133); assay: LanthaScreen TR-FRET Liver X Receptor Coactivator Assay, LXR alpha-LBD; type: biochemical; settings: relative to reference T0901317; for LXR alpha IP (nM) / pEC50: Inflection Point (potency), co-activator recruitment; for Emax: activity at max dose (efficacy), read-out: LXR alpha act @ max dose (%); for pEC50: read-out: LXR alpha IP
T2 construct: purchased Invitrogen pv4655
T2 sequence (Q13133 209-447 limits assumed): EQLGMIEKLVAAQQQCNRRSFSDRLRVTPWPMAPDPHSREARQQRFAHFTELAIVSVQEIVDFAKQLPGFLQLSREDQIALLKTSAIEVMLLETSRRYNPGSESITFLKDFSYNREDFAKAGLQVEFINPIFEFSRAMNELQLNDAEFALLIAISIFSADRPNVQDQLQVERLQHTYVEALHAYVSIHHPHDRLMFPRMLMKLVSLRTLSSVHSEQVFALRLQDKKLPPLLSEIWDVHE
How it was run: as §1

| pEC50 [1] | Emax [1] | LXR alpha IP (nM) [2] | Emax [2] | pEC50 [2] | Compound |
| --- | --- | --- | --- | --- | --- |
| 6.85 | 99% |  | 43% | 5.85 | CC(C)(C)OC(=O)NCC1CN(C(=O)c2ccc(N3CCC(C4CCN(C(=O)[C@](O)(c5ccccc5)C(F)(F)F)CC4)CC3)cc2Cl)C1 [Example E-39, tert-butyl ({1-[(2-chloro-4-{1′-[(2R)-3,3,3-trifluoro-2-hydroxy-2-phenylpropanoyl]-4,4′-bipiperidin-1-yl}phenyl)carbonyl]azetidin-3-yl}methyl)carbamate] |
| 6.53 | 52% | NO IP | 39% |  | O=C(c1ccc(N2CCC(C3CCN(C(=O)[C@](O)(c4ccccc4)C(F)(F)F)CC3)CC2)cc1Cl)N1CC(n2cccn2)C1 [Example E-40, (2R)-3-[1′-(3-chloro-4-{[3-(1H-pyrazol-1-yl)azetidin-1-yl]carbonyl}phenyl)-4,4′-bipiperidin-1-yl]-1,1,1-trifluoro-3-oxo-2-phenylpropan-2-ol] |
| 6.93 | 74% |  | 54% | 5.77 | O=C(NC1CN(C(=O)c2ccc(N3CCC(C4CCN(C(=O)[C@](O)(c5ccccc5)C(F)(F)F)CC4)CC3)cc2Cl)C1)c1ccccc1 [Example E-41, N-{1-[(2-chloro-4-{1′-[(2R)-3,3,3-trifluoro-2-hydroxy-2-phenylpropanoyl]-4,4′-bipiperidin-1-yl}phenyl)carbonyl]azetidin-3-yl}benzamide] |
| 7.01 | 39% |  | 25% | 5.84 | O=C(c1ccc(N2CCC(C3CCN(C(=O)[C@](O)(c4ccccc4)C(F)(F)F)CC3)CC2)cc1Cl)N1CC(N2CCCC2)C1 [Example E-42, (2R)-3-(1′-{3-chloro-4-[(3-pyrrolidin-1-ylazetidin-1-yl)carbonyl]phenyl}-4,4′-bipiperidin-1-yl)-1,1,1-trifluoro-3-oxo-2-phenylpropan-2-ol] |
| 6.45 | 50% |  | 24% | 5.52 | O=C(c1ccc(N2CCC(C3CCN(C(=O)[C@](O)(c4ccccc4)C(F)(F)F)CC3)CC2)cc1Cl)N1CC(c2cccnc2)C1 [Example E-43, (2R)-3-(1′-{3-chloro-4-[(3-pyridin-3-ylazetidin-1-yl)carbonyl]phenyl}-4,4′-bipiperidin-1-yl)-1,1,1-trifluoro-3-oxo-2-phenylpropan-2-ol] |
| 7.05 | 67% |  | 31% | 5.77 | O=C(c1ccc(N2CCC(C3CCN(C(=O)[C@](O)(c4ccccc4)C(F)(F)F)CC3)CC2)cc1Cl)N1CC(N2CCCCC2)C1 [Example E-44, (2R)-3-(1′-{3-chloro-4-[(3-piperidin-1-ylazetidin-1-yl)carbonyl]phenyl}-4,4′-bipiperidin-1-yl)-1,1,1-trifluoro-3-oxo-2-phenylpropan-2-ol] |
| 6.38 | 68% |  | 12% | 5.99 | O=C(c1ccc(N2CCC(C3CCN(C(=O)[C@](O)(c4ccccc4)C(F)(F)F)CC3)CC2)cc1Cl)N1CC(F)C1 [Example E-45, (2R)-3-(1′-{3-chloro-4-[(3-fluoroazetidin-1-yl)carbonyl]phenyl}-4,4′-bipiperidin-1-yl)-1,1,1-trifluoro-3-oxo-2-phenylpropan-2-ol] |
| 6.40 | 55% |  | 27% | 5.65 | O=C(c1ccc(N2CCC(C3CCN(C(=O)[C@](O)(c4ccccc4)C(F)(F)F)CC3)CC2)cc1Cl)N1CCC1CO (stereo partly drawn) [Example E-46, (2R)-3-[1′-(3-chloro-4-{[2-(hydroxymethyl)azetidin-1-yl]carbonyl}phenyl)-4,4′-bipiperidin-1-yl]-1,1,1-trifluoro-3-oxo-2-phenylpropan-2-ol] |
| 6.48 | 71% | NO IP | 10% |  | Cc1nnc(CN(C)C(=O)c2ccc(N3CCC(C4CCN(C(=O)[C@](O)(c5ccccc5)C(F)(F)F)CC4)CC3)cc2Cl)o1 [Example E-47, 2-chloro-N-methyl-N-[(5-methyl-1,3,4-oxadiazol-2-yl)methyl]-4-{1′-[(2R)-3,3,3-trifluoro-2-hydroxy-2-phenylpropanoyl]-4,4′-bipiperidin-1-yl}benzamide] |

Further lines, the molecule ahead of its results:

| Compound | pEC50 [1] | Emax [1] | LXR alpha IP (nM) [2] | Emax [2] | pEC50 [2] |
| --- | --- | --- | --- | --- | --- |
| CC1(C)CCN(C(=O)c2ccc(N3CCC(C4CCN(C(=O)[C@](O)(c5ccccc5)C(F)(F)F)CC4)CC3)cc2Cl)C1 [Example E-28, (2R)-3-(1′-{3-chloro-4-[(3,3-dimethylpyrrolidin-1-yl)carbonyl]phenyl}-4,4′-bipiperidin-1-yl)-1,1,1-trifluoro-3-oxo-2-phenylpropan-2-ol] | 6.70 | 57% | NO IP | 15% |  |
| CCC1CCN(C(=O)c2ccc(N3CCC(C4CCN(C(=O)[C@](O)(c5ccccc5)C(F)(F)F)CC4)CC3)cc2Cl)C1 (stereo partly drawn) [Example E-29, (2R)-3-(1′-{3-chloro-4-[(3-ethylpyrrolidin-1-yl)carbonyl]phenyl}-4,4′-bipiperidin-1-yl)-1,1,1-trifluoro-3-oxo-2-phenylpropan-2-ol] | 6.42 | 63% | NO IP | 13% |  |
| CCC1CCCN1C(=O)c1ccc(N2CCC(C3CCN(C(=O)[C@](O)(c4ccccc4)C(F)(F)F)CC3)CC2)cc1Cl (stereo partly drawn) [Example E-30, (2R)-3-(1′-{3-chloro-4-[(2-ethylpyrrolidin-1-yl)carbonyl]phenyl}-4,4′-bipiperidin-1-yl)-1,1,1-trifluoro-3-oxo-2-phenylpropan-2-ol] | 6.84 | 74% |  | 15% | 5.82 |
| O=C1CCN(C(=O)c2ccc(N3CCC(C4CCN(C(=O)[C@](O)(c5ccccc5)C(F)(F)F)CC4)CC3)cc2Cl)C1 [Example E-31] | 6.74 | 79% |  | 28% | 5.52 |
| COC(=O)C1CN(C(=O)c2ccc(N3CCC(C4CCN(C(=O)[C@](O)(c5ccccc5)C(F)(F)F)CC4)CC3)cc2Cl)C1 [Example E-32, methyl 1-[(2-chloro-4-{1′-[(2R)-3,3,3-trifluoro-2-hydroxy-2-phenylproanoyl]-4,4′-bipiperidin-1-yl}phenyl)carbonyl]azetidine-3-carboxylate] | 6.84 | 57% |  | 22% | 5.65 |
| CC(C)N(C)C(=O)c1ccc(N2CCC(C3CCN(C(=O)[C@](O)(c4ccccc4)C(F)(F)F)CC3)CC2)cc1Cl [Example E-33, 2-chloro-N-methyl-N-(1-methylethyl)-4-{1′-[(2R)-3,3,3-trifluoro-2-hydroxy-2-phenylpropanoyl]-4,4′-bipiperidin-1-yl}benzamide] | 7.15 | 95% |  | 24% | 6.05 |
| O=C(c1ccc(N2CCC(C3CCN(C(=O)[C@](O)(c4ccccc4)C(F)(F)F)CC3)CC2)cc1Cl)N1CC(F)(F)C1 [Example E-34, (2R)-3-(1′-{3-chloro-4-[(3,3-difluoroazetidin-1-yl)carbonyl]phenyl}-4,4′-bipiperidin-1-yl)-1,1,1-trifluoro-3-oxo-2-phenylpropan-2-ol] | 6.35 | 83% | NO IP | 28% |  |
| COC1CN(C(=O)c2ccc(N3CCC(C4CCN(C(=O)[C@](O)(c5ccccc5)C(F)(F)F)CC4)CC3)cc2Cl)C1 [Example E-35, (2R)-3-(1′-{3-chloro-4-[(3-methoxyazetidin-1-yl)carbonyl]phenyl}-4,4′-bipiperidin-1-yl)-1,1,1-trifluoro-3-oxo-2-phenylpropan-2-ol] | 6.44 | 57% |  | 19% | 5.61 |
| O=C(c1ccc(N2CCC(C3CCN(C(=O)[C@](O)(c4ccccc4)C(F)(F)F)CC3)CC2)cc1Cl)N1CC(O)C1 [Example E-36, 1-[(2-chloro-4-{1′-[(2R)-3,3,3-trifluoro-2-hydroxy-2-phenylpropanoyl]-4,4′-bipiperidin-1-yl}phenyl)carbonyl]azetidin-3-ol] | 6.34 | 74% |  | 23% | 5.42 |
| O=C(c1ccc(N2CCC(C3CCN(C(=O)[C@](O)(c4ccccc4)C(F)(F)F)CC3)CC2)cc1Cl)N1CCCC2(CC2)C1 [Example E-37, (2R)-3-{1′-[4-(5-azaspiro[2.5]oct-5-ylcarbonyl)-3-chlorophenyl]-4,4′-bipiperidin-1-yl}-1,1,1-trifluoro-3-oxo-2-phenylpropan-2-ol] | 6.67 | 70% | NO IP | 5% |  |
| CC1CCCN(C(=O)c2ccc(N3CCC(C4CCN(C(=O)[C@](O)(c5ccccc5)C(F)(F)F)CC4)CC3)cc2Cl)C1 (stereo partly drawn) [Example E-38, (2R)-3-(1′-{3-chloro-4-[(3-methylpiperidin-1-yl)carbonyl]phenyl}-4,4′-bipiperidin-1-yl)-1,1,1-trifluoro-3-oxo-2-phenylpropan-2-ol] | 6.56 | 57% | NO IP | 0% |  |
